Experimental data reported in ChEMBL document CHEMBL3885881, “DrugMatrix”.

Species: Rattus norvegicus
Assay: DrugMatrix - Regimen: Daily Repeat
Format: toxicity, organism-based, Sprague-Dawley
Design: regimen Daily Repeat, gender Male, age 6-8 weeks
Conditions: in vivo, po, route oral GAVAGE, vehicle .5 % CMC; for BASOPHIL / EOSINOPHIL / ERYTHROCYTE COUNT / HEMATOCRIT / HEMOGLOBIN / LEUKOCYTE COUNT / LYMPHOCYTE / MEAN CORPUSCULAR HEMOGLOBIN / MEAN CORPUSCULAR HEMOGLOBIN CONCENTRATION / MEAN CORPUSCULAR VOLUME / MONOCYTE / NEUTROPHIL / PLATELET COUNT: tissue Blood; for ALANINE AMINOTRANSFERASE / ALBUMIN / ALKALINE PHOSPHATASE / ASPARTATE AMINOTRANSFERASE / BLOOD UREA NITROGEN / CHLORIDE / CHOLESTEROL / CREATINE PHOSPHOKINASE / CREATININE / GLUCOSE / PHOSPHORUS / POTASSIUM / SODIUM / TOTAL BILIRUBIN / TOTAL PROTEIN: tissue Plasma
[1] = 0 mg/kg, 72 h, dose level Control, time 3 day
[2] = 0 mg/kg, 120 h, dose level Control, time 5 day
[3] = 45 mg/kg, 72 h, dose level Low, time 3 day
[4] = 45 mg/kg, 120 h, dose level Low, time 5 day

Nc1ccc(C(=O)O)c(O)c1 [AMINOSALICYLIC ACID]
BASOPHIL [1]: 0% | EOSINOPHIL [1]: 0% | ERYTHROCYTE COUNT [1]: 6.34 x10E6/uL | HEMATOCRIT [1]: 37.62% | HEMOGLOBIN [1]: 14.82 G/DL | LEUKOCYTE COUNT [1]: 11.18 x10E3/uL | LYMPHOCYTE [1]: 87.5% | MEAN CORPUSCULAR HEMOGLOBIN [1]: 23.48 pg | MEAN CORPUSCULAR HEMOGLOBIN CONCENTRATION [1]: 39.5 G/DL | MEAN CORPUSCULAR VOLUME [1]: 59.45 fL | MONOCYTE [1]: 1.67% | NEUTROPHIL [1]: 10.83% | PLATELET COUNT [1]: 1074.83 x10E3/uL | ALANINE AMINOTRANSFERASE [1]: 36.5 u/L | ALBUMIN [1]: 3.9 G/DL | ALKALINE PHOSPHATASE [1]: 370.17 u/L | ASPARTATE AMINOTRANSFERASE [1]: 63.17 u/L | BLOOD UREA NITROGEN [1]: 16.83 mg/dL | CHLORIDE [1]: 99.33 MEQ/L | CHOLESTEROL [1]: 64.33 mg/dL | CREATINE PHOSPHOKINASE [1]: 127 u/L | CREATININE [1]: 0.55 mg/dL | GLUCOSE [1]: 173.5 mg/dL | PHOSPHORUS [1]: 10.08 mg/dL | POTASSIUM [1]: 6.23 MEQ/L | SODIUM [1]: 143.5 MEQ/L | TOTAL BILIRUBIN [1]: 0.52 mg/dL | TOTAL PROTEIN [1]: 6.35 G/DL | BASOPHIL [2]: 0% | EOSINOPHIL [2]: 0.17% | ERYTHROCYTE COUNT [2]: 6.12 x10E6/uL | HEMATOCRIT [2]: 37.08% | HEMOGLOBIN [2]: 14.82 G/DL | LEUKOCYTE COUNT [2]: 11.87 x10E3/uL | LYMPHOCYTE [2]: 83.33% | MEAN CORPUSCULAR HEMOGLOBIN [2]: 24.25 pg | MEAN CORPUSCULAR HEMOGLOBIN CONCENTRATION [2]: 39.97 G/DL | MEAN CORPUSCULAR VOLUME [2]: 60.65 fL | MONOCYTE [2]: 1.5% | NEUTROPHIL [2]: 15% | PLATELET COUNT [2]: 1042.83 x10E3/uL | ALANINE AMINOTRANSFERASE [2]: 46 u/L | ALBUMIN [2]: 3.82 G/DL | ALKALINE PHOSPHATASE [2]: 369.5 u/L | ASPARTATE AMINOTRANSFERASE [2]: 65 u/L | BLOOD UREA NITROGEN [2]: 16.33 mg/dL | CHLORIDE [2]: 100.67 MEQ/L | CHOLESTEROL [2]: 57.17 mg/dL | CREATINE PHOSPHOKINASE [2]: 130 u/L | CREATININE [2]: 0.53 mg/dL | GLUCOSE [2]: 163.33 mg/dL | PHOSPHORUS [2]: 9.53 mg/dL | POTASSIUM [2]: 6.27 MEQ/L | SODIUM [2]: 144.83 MEQ/L | TOTAL BILIRUBIN [2]: 0.55 mg/dL | TOTAL PROTEIN [2]: 6.32 G/DL | BASOPHIL [3]: 0% | EOSINOPHIL [3]: 0% | ERYTHROCYTE COUNT [3]: 6.2 x10E6/uL | HEMATOCRIT [3]: 36.9% | HEMOGLOBIN [3]: 14.43 G/DL | LEUKOCYTE COUNT [3]: 13.37 x10E3/uL | LYMPHOCYTE [3]: 88% | MEAN CORPUSCULAR HEMOGLOBIN [3]: 23.3 pg | MEAN CORPUSCULAR HEMOGLOBIN CONCENTRATION [3]: 39.13 G/DL | MEAN CORPUSCULAR VOLUME [3]: 59.6 fL | MONOCYTE [3]: 0.33% | NEUTROPHIL [3]: 11.67% | PLATELET COUNT [3]: 1203.67 x10E3/uL | ALANINE AMINOTRANSFERASE [3]: 39.33 u/L | ALBUMIN [3]: 3.83 G/DL | ALKALINE PHOSPHATASE [3]: 358.33 u/L | ASPARTATE AMINOTRANSFERASE [3]: 67.33 u/L | BLOOD UREA NITROGEN [3]: 15 mg/dL | CHLORIDE [3]: 99.33 MEQ/L | CHOLESTEROL [3]: 71.33 mg/dL | CREATINE PHOSPHOKINASE [3]: 117 u/L | CREATININE [3]: 0.53 mg/dL | GLUCOSE [3]: 180 mg/dL | PHOSPHORUS [3]: 10.37 mg/dL | POTASSIUM [3]: 6.03 MEQ/L | SODIUM [3]: 143 MEQ/L | TOTAL BILIRUBIN [3]: 0.47 mg/dL | TOTAL PROTEIN [3]: 6.27 G/DL | BASOPHIL [4]: 0% | EOSINOPHIL [4]: 0% | ERYTHROCYTE COUNT [4]: 5.82 x10E6/uL | HEMATOCRIT [4]: 35.1% | HEMOGLOBIN [4]: 14.37 G/DL | LEUKOCYTE COUNT [4]: 14.2 x10E3/uL | LYMPHOCYTE [4]: 88% | MEAN CORPUSCULAR HEMOGLOBIN [4]: 24.67 pg | MEAN CORPUSCULAR HEMOGLOBIN CONCENTRATION [4]: 40.97 G/DL | MEAN CORPUSCULAR VOLUME [4]: 60.3 fL | MONOCYTE [4]: 2% | NEUTROPHIL [4]: 10% | PLATELET COUNT [4]: 1018.67 x10E3/uL | ALANINE AMINOTRANSFERASE [4]: 34.33 u/L | ALBUMIN [4]: 3.6 G/DL | ALKALINE PHOSPHATASE [4]: 348.33 u/L | ASPARTATE AMINOTRANSFERASE [4]: 58 u/L | BLOOD UREA NITROGEN [4]: 15 mg/dL | CHLORIDE [4]: 101 MEQ/L | CHOLESTEROL [4]: 62.67 mg/dL | CREATINE PHOSPHOKINASE [4]: 122.67 u/L | CREATININE [4]: 0.47 mg/dL | GLUCOSE [4]: 155.33 mg/dL | PHOSPHORUS [4]: 10 mg/dL | POTASSIUM [4]: 6.3 MEQ/L | SODIUM [4]: 144.67 MEQ/L | TOTAL BILIRUBIN [4]: 0.37 mg/dL | TOTAL PROTEIN [4]: 5.8 G/DL
